Measured values as given in PMC5515969, “Effects of 31 FDA approved small-molecule kinase inhibitors on isolated rat liver mitochondria” (Archives of Toxicology, 2016).
Where two headings read alike, the source gives them in different places.

Columns and labels:
[1] = system: isolated rat liver mitochondria; assay: Mitochondrial ROS production (CM-H2DCFDA); settings: DMSO treated samples set as 1
[2] = molecular target: T1, RCC II (Rattus norvegicus, UniProt P21913+Q641Z9+Q6PCT8+Q920L2); assay: RCC II activity in submitochondrial particles; format: biochemical; design: key: activity relative to DMSO-treated controls (control set as 1 = 100%); settings: relative to DMSO treated samples
T1 construct: Submitochondrial particles were prepared by subjecting the intact mitochondria to three successive freeze–thaw cycles; from tissue; host or cells: rat liver mitochondria, used as submitochondrial particles
How it was run: (§1)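 Kinase inhibitors were preincubated 15 min with submitochondrial particles (1 mg/ml) before complex activities were measured. RCC I was the rotenone-sensitive portion (activity without minus with rotenone). RCC I/V was read at 340 nm and RCC II at 600 nm every 1 min for 6 min. RCC III and IV were read at 550 nm every 10 s for 2 min. Activities are normalized to DMSO controls set as 1.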

[3] = system: isolated rat liver mitochondria; assay: Mitochondrial oxygen consumption (glutamate/malate or succinate driven, state 4 and state 3); format: biochemical; settings: DMSO treated samples set as 1; as to State 3 respiration driven by succinate at 10XCmax: key: 0 indicates that the drug had no effects (negative); as to State 3 respiration driven by succinate at 1XCmax: key: 0 indicates that the drug had no effects (negative)
How it was run: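 Rat liver mitochondria (1 mg/ml protein) exposed 5 min to kinase inhibitors in 0.1% DMSO, then O2 consumption measured by Clark-type electrode with glutamate/malate or succinate (state 4), ADP added after 3 min (state 3). Rates normalized to 0.1% DMSO controls set to 1.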

[4] = system: isolated rat liver mitochondria; assay: Mitochondrial inner membrane potential (MMP), Rhodamine 123; format: biochemical; settings: difference in signal between KI and DMSO treated samples at the end of experiments
Source text: Fig. 3 KI effects on mitochondrial inner membrane potential (MMP). […] In a, c, data are means and standard derivations from three separate experiments. *p < 0.05 as compared to DMSO-treated samples at the end of experiments. In b, data are means of two independent experiments

[5] = system: isolated rat liver mitochondria; assay: Mitochondrial swelling (absorbance at 535 nm); format: biochemical; settings: difference in signal between KI and DMSO treated samples at the end of experiments; as to Swelling 5XCmax: key: 0 indicates that the drug had no effects (negative)
[6] = system: RCC I; assay: RCC I activity in submitochondrial particles; format: biochemical, rat; design: key to RCC I at 10XCmax / RCC I at 100XCmax / RCC I at 50XCmax / RCC I at 30XCmax / RCC I at 20XCmax: activity relative to DMSO-treated controls (control set as 1 = 100%)
How it was run: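 Abs 340 nm (I/V) or 600 nm (II), 1-min reads × 6 min; 550 nm (III, IV), 10-s reads × 2 min. RCC I = rotenone-free minus rotenone rate. DMSO control = 1.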

[7] = system: RCC IV; assay: RCC IV activity in submitochondrial particles; format: biochemical, rat; design: key to RCC IV at 50XCmax / RCC IV at 100XCmax: activity relative to DMSO-treated controls (control set as 1 = 100%)
How it was run: as §1

[8] = cited from earlier work
[9] = system: RCC III; assay: RCC III activity in submitochondrial particles; format: biochemical, rat; design: key to RCC III at 100XCmax: activity relative to DMSO-treated controls (control set as 1 = 100%)
How it was run: as §1

[10] = system: RCC V; assay: RCC V activity in submitochondrial particles; format: biochemical, rat; as to RCC V at 5XCmax: key: 0 indicates that the drug had no effects (negative)
How it was run: as §1

[11] = 100-fold Cmax, 15 min, DMSO-treated = 100
[12] = 100XCmax, relative to DMSO treated samples

T1 sequence (Q920L2 35-656): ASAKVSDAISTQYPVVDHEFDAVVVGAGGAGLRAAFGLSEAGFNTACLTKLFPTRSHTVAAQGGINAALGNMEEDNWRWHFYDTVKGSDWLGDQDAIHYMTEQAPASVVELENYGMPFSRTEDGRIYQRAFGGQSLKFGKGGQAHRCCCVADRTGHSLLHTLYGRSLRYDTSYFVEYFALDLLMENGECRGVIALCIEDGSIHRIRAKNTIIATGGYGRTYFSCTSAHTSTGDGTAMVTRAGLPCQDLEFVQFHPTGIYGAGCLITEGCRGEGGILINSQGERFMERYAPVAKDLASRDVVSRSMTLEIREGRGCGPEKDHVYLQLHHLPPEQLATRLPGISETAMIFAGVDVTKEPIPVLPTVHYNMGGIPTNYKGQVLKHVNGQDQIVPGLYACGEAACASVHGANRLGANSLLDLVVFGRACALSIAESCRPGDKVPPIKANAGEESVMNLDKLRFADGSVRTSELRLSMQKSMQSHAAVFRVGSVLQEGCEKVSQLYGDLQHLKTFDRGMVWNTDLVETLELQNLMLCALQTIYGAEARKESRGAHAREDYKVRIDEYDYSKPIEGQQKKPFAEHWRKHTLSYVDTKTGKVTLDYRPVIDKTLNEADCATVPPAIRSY
T1 sequence (P21913 31-282): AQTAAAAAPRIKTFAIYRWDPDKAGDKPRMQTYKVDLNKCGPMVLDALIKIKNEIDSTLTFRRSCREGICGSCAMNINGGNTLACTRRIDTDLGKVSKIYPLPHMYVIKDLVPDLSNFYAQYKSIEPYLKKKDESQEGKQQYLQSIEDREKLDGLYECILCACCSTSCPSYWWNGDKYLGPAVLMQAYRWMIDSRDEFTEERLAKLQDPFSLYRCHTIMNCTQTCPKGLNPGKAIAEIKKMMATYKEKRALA
T1 sequence (Q641Z9 1-169): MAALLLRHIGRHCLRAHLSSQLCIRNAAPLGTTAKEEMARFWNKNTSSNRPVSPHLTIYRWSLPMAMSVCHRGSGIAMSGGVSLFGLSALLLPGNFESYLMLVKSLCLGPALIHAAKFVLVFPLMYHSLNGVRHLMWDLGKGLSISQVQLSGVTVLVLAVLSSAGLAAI
T1 sequence (Q6PCT8 57-159): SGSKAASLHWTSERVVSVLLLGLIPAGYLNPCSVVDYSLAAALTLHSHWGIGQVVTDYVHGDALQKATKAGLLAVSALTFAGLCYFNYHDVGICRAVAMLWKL

COc1cc(Nc2c(C#N)cnc3cc(OCCCN4CCN(C)CC4)c(OC)cc23)c(Cl)cc1Cl [Bosutinib]
0: ROS measured by CM-H2DCFDA at 1XCmax ([1]; 1XCmax) | ROS measured by CM-H2DCFDA at 2.5XCmax ([1]; 2.5XCmax) | ROS measured by CM-H2DCFDA at 5XCmax ([1]; 5XCmax) | ROS measured by CM-H2DCFDA at 10XCmax ([1]; 10XCmax) | ROS measured by CM-H2DCFDA at 20XCmax ([1]; 20XCmax) | ROS measured by CM-H2DCFDA at 30XCmax ([1]; 30XCmax) | ROS measured by CM-H2DCFDA at 50XCmax ([1]; 50XCmax) | ROS measured by CM-H2DCFDA at 100XCmax ([1]; 100XCmax) | RCC II at 1.0XCmax ([2]; 1.0XCmax) | RCC II at 2.5XCmax ([2]; 2.5XCmax) | RCC II at 5XCmax ([2]; 5XCmax) | RCC II at 10XCmax ([2]; 10XCmax) | RCC II at 20XCmax ([2]; 20XCmax) | RCC II at 30XCmax ([2]; 30XCmax) | RCC II at 50XCmax ([2]; 50XCmax) | RCC II at 100XCmax ([2]; 100XCmax) | State 3 respiration driven by glutamate/malate at 1XCmax ([3]; 1XCmax) | State 3 respiration driven by succinate at 1XCmax ([3]; 1XCmax) | State 4 respiration driven by glutamate/malate at 1XCmax ([3]; 1XCmax) | State 4 respiration driven by succinate at 1XCmax ([3]; 1XCmax) | State 3 respiration driven by glutamate/malate at 2.5XCmax ([3]; 2.5XCmax) | State 3 respiration driven by succinate at 2.5XCmax ([3]; 2.5XCmax) | State 4 respiration driven by glutamate/malate at 2.5XCmax ([3]; 2.5XCmax) | State 4 respiration driven by succinate at 2.5XCmax ([3]; 2.5XCmax) | State 3 respiration driven by glutamate/malate at 5XCmax ([3]; 5XCmax) | State 3 respiration driven by succinate at 5XCmax ([3]; 5XCmax) | State 4 respiration driven by glutamate/malate at 5XCmax ([3]; 5XCmax) | State 4 respiration driven by succinate at 5XCmax ([3]; 5XCmax) | State 3 respiration driven by glutamate/malate at 10XCmax ([3]; 10XCmax) | State 3 respiration driven by succinate at 10XCmax ([3]; 10XCmax) | State 4 respiration driven by glutamate/malate at 10XCmax ([3]; 10XCmax) | State 4 respiration driven by succinate at 10XCmax ([3]; 10XCmax) | State 3 respiration driven by glutamate/malate at 20XCmax ([3]; 20XCmax) | State 3 respiration driven by succinate at 20XCmax ([3]; 20XCmax) | State 4 respiration driven by glutamate/malate at 20XCmax ([3]; 20XCmax) | State 4 respiration driven by succinate at 20XCmax ([3]; 20XCmax) | State 3 respiration driven by glutamate/malate at 30XCmax ([3]; 30XCmax) | State 3 respiration driven by succinate at 30XCmax ([3]; 30XCmax) | State 4 respiration driven by glutamate/malate at 30XCmax ([3]; 30XCmax) | State 4 respiration driven by succinate at 30XCmax ([3]; 30XCmax) | State 3 respiration driven by glutamate/malate at 50XCmax ([3]; 50XCmax) | State 3 respiration driven by succinate at 50XCmax ([3]; 50XCmax) | State 4 respiration driven by glutamate/malate at 50XCmax ([3]; 50XCmax) | State 4 respiration driven by succinate at 50XCmax ([3]; 50XCmax) | State 3 respiration driven by glutamate/malate at 100XCmax ([3]; 100XCmax) | State 3 respiration driven by succinate at 100XCmax ([3]; 100XCmax) | State 4 respiration driven by glutamate/malate at 100XCmax ([3]; 100XCmax) | State 4 respiration driven by succinate at 100XCmax ([3]; 100XCmax) | MMP measured by Rhodamine 123 at 1XCmax ([4]; 1XCmax) | MMP measured by Rhodamine 123 at 2.5XCmax ([4]; 2.5XCmax) | MMP measured by Rhodamine 123 at 5XCmax ([4]; 5XCmax) | MMP measured by Rhodamine 123 at 10XCmax ([4]; 10XCmax) | MMP measured by Rhodamine 123 at 20XCmax ([4]; 20XCmax) | MMP measured by Rhodamine 123 at 30XCmax ([4]; 30XCmax) | MMP measured by Rhodamine 123 at 50XCmax ([4]; 50XCmax) | MMP measured by Rhodamine 123 at 100XCmax ([4]; 100XCmax) | Swelling 1XCmax ([5]; 1XCmax) | Swelling 2.5XCmax ([5]; 2.5XCmax) | Swelling 5XCmax ([5]; 5XCmax) | Swelling 10XCmax ([5]; 10XCmax) | Swelling 20XCmax ([5]; 20XCmax) | Swelling 30XCmax ([5]; 30XCmax) | Swelling 50XCmax ([5]; 50XCmax) | Swelling 100XCmax ([5]; 100XCmax) | RCC I at 10XCmax ([6]; 10XCmax, relative to DMSO treated samples) | RCC IV at 50XCmax ([7]; 50XCmax, relative to DMSO treated samples, in %) | RCC III at 100XCmax [9, 12] | RCC V at 5XCmax ([10]; 5XCmax, relative to DMSO treated samples) | RCC V at 50XCmax ([10]; 50XCmax, relative to DMSO treated samples)
W&P: ALT↑/monitoring: labeling for DILI ([8]; W&P warnings and precautions, BBW black box warnings, ref FDA product labeling)
101.25 ± 2.26 % of control: RCC activity IV [7, 11]
91.53 ± 6.49 % of control: RCC activity V [10, 11]
W&P: ALT↑: Labeling for DILI ([8]; BBW: black box warning, W&P: Warnings and Precautions, ref product labeling)
1: DILI potential (based on labeling) ([8]; 1 = DILI positive, 0 = negative, ref product labeling) | DILI potential (based on labeling) ([8]; ref FDA product labeling)
88.03±3.01: RCC I at 100XCmax [6, 12]
101.81 ± 4.43 % of control: RCC activity III [9, 11]
88.03 ± 3.01 % of control: RCC activity I [6, 11]
